Our source for the Ki values is publication PMC10065284, “Protease inhibition, in vitro antibacterial and IFD/MM-GBSA studies of ciprofloxacin-based acetanilides” (PLOS ONE, 2023).

The Ki is the equilibrium dissociation constant of an inhibitor or competing ligand from its target. The low end stands for higher affinity, the high end for lower affinity.

The assay deals with T1, serine protease.
T1 construct: purified serine protease, indigenously isolated from B. subtilis sp
As to the kind of experiment: casein hydrolysis assay with purified protease, inhibition kinetics. The format is biochemical, Bacillus subtilis.

Regarding `COC(=O)c1cn(C2CC2)c2cc(N3CCN(CC(=O)Nc4ccccc4)CC3)c(F)cc2c1=O` [4a, methyl 1-cyclopropyl-6-fluoro-4-oxo-7-(4-(2-oxo-2-(phenylamino)ethyl)piperazin-1-yl)-1,4-dihydro-quinoline-3-carboxylate], affinity was put at a Ki of 100 nM.
